Values quoted from earlier work in patent US20110033506A1, “COMBINATION DOSAGE FORM OF LOW-DOSE MODAFINIL AND LOW-DOSE SILDENAFIL” (priority 2008, published 2011).

Test system: hamsters
Conditions: Agostino et al, PNAS 2007

## CCCc1nn(C)c2c(=O)[nH]c(-c3cc(S(=O)(=O)N4CCN(C)CC4)ccc3OCC)nc12.O=C(O)CC(O)(CC(=O)O)C(=O)O [Sildenafil, 1-[[3-(6,7-dihydro-1-methyl-7-oxo-3-propyl-1H-pyrazolo[4,3-d]pyrimidin-5-yl)-4-ethoxyphenyl]sulfonyl]-4-methylpiperazine]
  re-establishing disrupted circadian rhythms (jet lag): effective in re-establishing disrupted circadian rhythms
